The test system of the assay is human prostate. As to the kind of experiment: Contractile responses of human prostate. The conditions noted are these: antagonist affinity estimate against (−)-noradrenaline contractions of prostatic tissue strips; single antagonist concentration, incubated 2 hours. The method, then: Contractile Responses of Human Prostate
Prostatic tissue was cut into longitudinal strips (approximately 3×2×10 mm) and suspended in organ baths under a resting tension of 1 g in Krebs Ringer bicarbonate of the following composition (mM): NaCl (119), KCl (4.7), CaCl2 (2.5), KH2PO4 (1.2), MgSO4 (1.2), NaHCO3 (25), glucose (11), and gassed with 95% O2/5% CO2.
The solution also contained […]. Tissues were exposed to a sensitising dose of (−)-noradrenaline ([…]) and washed over a 45 minute period. Isometric contractions were obtained in response to cumulative additions of (−)-noradrenaline to obtain control curves in all tissues. A further curve was then generated in the presence or absence of antagonist (incubated for 2 hours). Antagonist affinity estimates (pA2) were determined using a single concentration of competing antagonist, […] where the dose ratio (DR), relative to corresponding controls, was produced by a single concentration of antagonist [A], assuming competitive antagonism and Schild regression close to unity.

Regarding `COc1cc2nc(N3CCCN(C(=O)N4CCOCC4)CC3)nc(N)c2cc1OCC1CCC1` [Example 3, 4-Amino-6-cyclobutylmethyloxy-7-methoxy-2-[4-(4-morpholinecarbonyl)-1,4-diazepan-1-yl]quinazoline], the pA2 value is recorded as 9.2.

These data come from US6417194B1, “Quinolines and quinazolines useful in therapy” (Pfizer, Inc., priority 1997, dated 2002).
